The record followed here is patent publication US6376488B1, “Benzoxazine α-1 adrenergic compounds” (Abbott Laboratories, priority 2000, dated 2002).

Where a name gives a salt, the structure may show the parent alone.

For the assay, the target named is T1, α1a (bovine) adrenoreceptor (Bos taurus, UniProt P18130).
T1 sequence (P18130 1-466): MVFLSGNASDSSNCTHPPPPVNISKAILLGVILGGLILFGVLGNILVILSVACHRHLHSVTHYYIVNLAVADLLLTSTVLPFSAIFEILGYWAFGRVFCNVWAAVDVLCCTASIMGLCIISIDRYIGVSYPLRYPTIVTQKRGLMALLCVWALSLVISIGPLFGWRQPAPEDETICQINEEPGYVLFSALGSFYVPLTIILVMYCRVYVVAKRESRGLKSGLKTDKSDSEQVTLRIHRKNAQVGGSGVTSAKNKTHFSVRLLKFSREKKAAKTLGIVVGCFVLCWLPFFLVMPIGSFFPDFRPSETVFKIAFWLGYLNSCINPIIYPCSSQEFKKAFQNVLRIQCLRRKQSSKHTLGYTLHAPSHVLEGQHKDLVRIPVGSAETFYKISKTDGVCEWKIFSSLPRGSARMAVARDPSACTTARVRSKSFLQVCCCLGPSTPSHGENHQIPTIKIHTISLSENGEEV
Description: [3H]-prazosin radioligand binding, cloned α1a (bovine) adrenoreceptor in LTK cells. To be noted: cloned receptor in LTK cell membranes, [3H]prazosin 0.2 nM. Here is the method:
Representative compounds of the invention were evaluated for α adrenoreceptor binding affinity in vitro using [^3H]-prazosin as the radioligand and following four cloned α1, adrenoreceptors expressed in LTK cells: α1a (rat), α1a (bovine), α1b : (hampster), and α1d (rat).
The cDNA clones encoding the α1, adrenoreceptors were obtained from TULCO (Triangle Universities Licensing Consortium, Research Triangle Park, N.C.) and inserted into the eukaryotic expression vector SnaB30. In this vector, expression of the adrenoreceptor gene is under the transcriptional control of an SV40 early promoter. Positive drug selection is provided by a neomycin-resistance gene. Mouse fibroblast cells (LTK) were transfected with the α1 expression plasmids and grown in Dulbecco's modified Eagle's medium (DMEM) containing 10% fetal calf serum and 30 μM G418. Stable G418-resistant parental lines were generated with successful expression of adrenoreceptor protein monitored using radioligand binding techniques. Stable single cell clones derived from the parental lines were screened in adrenoreceptor binding assays to identify clones having high adrenoreceptor density. Roller bottle cultures of the cloned lines were used to provide cell membranes for subsequent adrenoreceptor binding characterization studies. A cell line containing the SnaB30 vector expressing the human erythropoietin gene served as a negative control.
For adrenoreceptor binding assays, large scale membrane preparations were utilized in which 6 million cells were seeded into small (450 cm^2) Coming tissue culture roller bottles. DMEM (200 mL) containing 10% fetal calf serum and 300 μM G418 were added to each roller bottle. A 95% air/5% CO2 gas mixture (sterile) was injected into each roller bottle prior to sealing, and the bottles were then incubated at 37° C. on a roller rack for 5 days. Cells were refed with fresh medium after 3 days in culture.
On the fifth day of culture, growth medium was removed from cells grown in roller bottles, and the cells were washed twice with PBS (Sigma, 120 mM NaCl, 2.7 mM KCl, 10 mM Na2HPO4-NaH2PO4, pH=7.4). Cells were detached from the roller bottles by incubating for 15 minutes at 37° C. in a Tris-EDTA solution (10 mM Tris, 100 mM NaCl, 1 mM EDTA, pH=7.4). The cell suspension from each roller bottle was decanted into tared centrifuge tubes and kept on ice. An aliquot of each cell suspension was generally taken for cell counting. Cells were centrifuged at 3000×G for 5 minutes at 2-4° C., washed with PBS and recentrifuged. The supernatant was decanted, and the pellet was weighed to determine the wet weight of cells. Cells were washed a final time in 40 vol 5 mM Tris-HCl, 5 mM EDTA, pH=7.7 and centrifuged at 40,000×G for 10 minutes (“vol” indicates volume/weight, e.g., a “vol” of 40 would indicate that the one gram of cells were washed with 40 mls of buffer). Cells were homogenized in of 50 mM Tris-HCl, 5 mM EDTA (pH=7.4) (10 mL) and diluted to 40 mL/tube. Homogenates were centrifuged at 40,000×G for 10 minutes. The supernatant was decanted and the pellets rehomogenized in 50 mM Tris-HCl (pH=7.4) and centrifuged as before. The supernatant was decanted and the homogenate was resuspended in 6.25 volumes (per gram wet weight) of 50 mM Tris-HCl and aliquots of the pooled homogenates frozen in liquid N2 and,stored at −70° C. until the time of assay.
Receptor binding assays for α1 adrenoreceptors were performed essentially as described by Greengrass and Bremner (Eur. J. Pharmacol. 55: 323-326 (1979)). […] Following equilibration, bound radioligand was separated from free on GF/B filters (presoaked in 0.5% polyethyleneimine) using ither a Brandel or Packard cell harvester. Radioactivity was determined by standard liquid scintillation techniques. Data were analyzed as previously described (Hancock, A. A., Kyncl, J. J., Martin, Y. C. and DeBemardis, J. F., J. Receptor Res. 8: 23-46 (1988)). The in Table 1.

Usually Ki stands for the dissociation constant of the complex between target and ligand, obtained from inhibition or displacement. `COc1cccc2c1N1CCN(CCCCn3c(=O)[nH]c4c(sc5ncccc54)c3=O)CC1CO2` (single isomer, unassigned; (-)) [Example 11, (−) 3-[4-(10-methoxy-1,2,4a,5-tetrahydropyrazino[2,1-c][1,4]benzoxazin-3(4H)-yl)butyl]pyrido[3′,2′:4.5]thieno[3,2-d]pyrimidine-2,4(1H,3H)-dione trihydrochloride]: the inhibitory constant (Ki) turned out to be 0.387 nM.
